This is an account of results in patent publication US20130281362A1, “ANTIVIRAL AGENT” (priority 2011, published 2013).

The experiment deals with influenza A virus strain A/Aichi/02/68 (H3N2). Details: species or system non-inbred male white mice. The settings on record: mouse, in vivo, 60 mg/kg.

The structures appear in SMILES notation.

As to `CCOC(=O)c1c(CSc2ccccc2)n(C)c2cc(Br)c(O)c(CN(C)C)c12` [Arbidol 970609], the Death rate is 10/15, the “Increase in MST” value is reported as 2.6 days, the “MST” value was determined as 9.3 days and the “Protection against death (%)” value came out at 33.3%.
